Data from patent publication US20240208954A1, “OXADIAZOLE COMPOUND, PREPARATION METHOD THEREFOR, PHARMACEUTICAL COMPOSITION AND USE THEREOF” (SHANGHAI INSTITUTE OF MATERIA MEDICA, CHINESE ACADEMY OF …, priority 2020, published 2024).
Values joined by “and” are separate entries in the source; they are usually repeats but may differ in a detail not shown here. Identical values can stand only once. Like-named read-outs stand apart in the source and are kept apart here.

Assay: Preliminary assessment of in vivo pharmacokinetics in rats
Conditions: for Vd: read-out: Vss; for concentration at 0.083 h / concentration at 0.25 h / concentration at 0.5 h / concentration at 1 h / concentration at 2 h / concentration at 4 h / concentration at 6 h / concentration at 8 h / concentration at 24 h: read-out: Plasma drug concentrations in rats; for MRT inf: read-out: MRT0-∞
[1] = rat, in vivo, rats, intravenous 2 mg/kg, mean
[2] = rat, plasma, iv, 2 mg/kg, intravenous 2 mg/kg, individual animals 1-3
[3] = rat, plasma, iv, 2 mg/kg, intravenous 2 mg/kg, mean
[4] = rat, plasma, iv, 2 mg/kg, rats, intravenous 2 mg/kg, individual animals 1-3
[5] = rat, plasma, iv, 2 mg/kg, rats, intravenous 2 mg/kg, mean
[6] = rat, plasma, oral, 20 mg/kg, intragastric 20 mg/kg, mean
[7] = rat, plasma, oral, 20 mg/kg, intragastric 20 mg/kg, individual animals 4-6
[8] = rat, plasma, po, 20 mg/kg, rats, intragastric 20 mg/kg, individual animals 4-6
[9] = rat, plasma, po, 20 mg/kg, rats, intragastric 20 mg/kg, mean
[10] = rats, intragastric 20 mg/kg, individual animals 4-6, listed as DC411151
[11] = rats, intravenous 2 mg/kg, individual animals 1-3, listed as DC411151, 2 mg/kg

CC(C)Oc1ccc(-c2nc(-c3ccc(CN4CC(C(=O)O)C4)c4ccccc34)no2)cc1C#N.Cl [Compound A1, 1-((4-(5-(3-cyano-4-isopropoxyphenyl)-1,2,4-oxadiazol-3-yl)naphthalen-1-yl)methyl) azetidine-3-carboxylic acid hydrochloric acid]
Cmax (rat, in vivo, po, rats, intragastric 20 mg/kg, mean, read-out: Cmax): 2760 ng/mL
clearance [1]: 8.66 mL/min/kg
half-life [1]: 182 min
Vd [1]: 0.758 L/kg
concentration at 0.083 h [2]: 3940 ng/mL
concentration at 0.083 h [3]: 3680 ng/mL
concentration at 0.25 h [2]: 2950 ng/mL
concentration at 0.25 h [3]: 2770 ng/mL
concentration at 0.5 h [2]: 1570 ng/mL
concentration at 0.5 h [3]: 1720 ng/mL
concentration at 1 h [2]: 900 ng/mL
concentration at 1 h [3]: 987 ng/mL
concentration at 2 h [2]: 419 ng/mL
concentration at 2 h [3]: 503 ng/mL
concentration at 4 h [2]: 128 ng/mL
concentration at 4 h [3]: 146 ng/mL
concentration at 6 h [2]: 45.8 ng/mL
concentration at 6 h [3]: 48.1 ng/mL
concentration at 8 h [2]: 11.8 ng/mL
concentration at 8 h [3]: 14.1 ng/mL
concentration at 24 h [2]: 1.16 ng/mL
concentration at 24 h [3]: 1.55 ng/mL
AUC(0-inf) [4]: 3570 ng·h/mL
clearance [4]: 9.34 mL/min/kg
AUC0-t (rat, plasma, iv, 2 mg/kg, rats, intravenous 2 mg/kg, individual animals 1-3, read-out: AUC0-t): 3550 ng·h/mL
MRT inf [4]: 1.2 h
Vd [4]: 0.672 L/kg
AUC(0-inf) [5]: 3860 ng·h/mL
AUC0-t (rat, plasma, iv, 2 mg/kg, rats, intravenous 2 mg/kg, mean, read-out: AUC0-t): 3850 ng·h/mL
MRT inf [5]: 1.47 h
concentration at 0.25 h [6]: 1270 ng/mL
concentration at 0.5 h [7]: 3130 ng/mL
concentration at 0.5 h [6]: 2430 ng/mL
concentration at 1 h [7]: 2560 ng/mL
concentration at 1 h [6]: 2570 ng/mL
concentration at 2 h [7]: 2290 ng/mL
concentration at 2 h [6]: 1890 ng/mL
concentration at 4 h [7]: 884 ng/mL
concentration at 4 h [6]: 787 ng/mL
concentration at 6 h [7]: 322 ng/mL
concentration at 6 h [6]: 320 ng/mL
concentration at 8 h [7]: 65.1 ng/mL
concentration at 8 h [6]: 62 ng/mL
concentration at 24 h [7]: 4.33 ng/mL
concentration at 24 h [6]: 3.25 ng/mL
bioavailability (rat, plasma, oral, rats, 20 mg/kg by gavage vs 2 mg/kg intravenous, read-out: absolute bioavailability): 22.8%
Tmax (rat, plasma, po, 20 mg/kg, rats, 20 mg/kg by gavage, range over animals, read-out: peak time Tmax): 30 to 60 min
AUC(0-inf) [8]: 9600 ng·h/mL
half-life [8]: 147 min
AUC0-t (rat, plasma, po, 20 mg/kg, rats, intragastric 20 mg/kg, individual animals 4-6, read-out: AUC0-t): 9590 ng·h/mL
Cmax (rat, plasma, po, 20 mg/kg, rats, intragastric 20 mg/kg, individual animals 4-6, read-out: Cmax): 3070 ng/mL
MRT inf [8]: 2.55 h
Tmax (rat, plasma, po, 20 mg/kg, rats, intragastric 20 mg/kg, individual animals 4-6, read-out: Tmax): 30 min
AUC(0-inf) [9]: 8790 ng·h/mL
half-life [9]: 149 min
MRT inf [9]: 2.72 h
Tmax (rat, plasma, po, 20 mg/kg, rats, intragastric 20 mg/kg, mean, read-out: Tmax): 50 min
AUC0-t [10]: 10100 ng·h/mL and 6710 ng·h/mL
AUC0-∞ [10]: 10100 ng·h/mL and 6720 ng·h/mL
Cmax [10]: 3130 ng/mL and 2070 ng/mL
MRT0-∞ [10]: 2.62 h and 3.00 h
t1/2 [10]: 2.5 h and 2.51 h
clearance classification (rats, intravenous 2 mg/kg): low clearance drug
plasma clearance as share of rat liver blood flow (about 55 mL/min/kg) (rats, intravenous 2 mg/kg): 15.7%
AUC0-t [11]: 4030 ng·h/mL and 3960 ng·h/mL
AUC0-∞ [11]: 4040 ng·h/mL and 3980 ng·h/mL
CL [11]: 8.26 mL/min/kg and 8.38 mL/min/kg
MRT0-∞ [11]: 1.52 h and 1.69 h
Vss [11]: 0.752 L/kg and 0.85 L/kg
t1/2 [11]: 1.15 h and 3.67 h and 4.3 h
